Measurements: patent US10513523B2, “Imidazopyrazines and pyrazolopyrimidines and their use as AMPA receptor modulators” (Janssen Pharmaceutica NV, priority 2015, dated 2019)

What was measured:
[1] = biological target: GluA1o-γ8 (GRIA1o-CACNG8 fusion construct; TARP γ8 dependent AMPA receptor) (Homo sapiens (Human), UniProt P42261+Q8WXS5); assay: Calcium flux assay (FLIPR), inhibition of glutamate response of GluA1o-γ8 channel; format: cell-based; settings: HEK293 cells stably expressing GRIA1o-CACNG8 fusion; 15 μM glutamate; pIC50 = negative log of IC50 in molar; read-out: GluR1-γ8 (pIC50) (converted)
How it was run: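 Potency is the midpoint of a four-parameter logistic fit to control-normalized FLIPR calcium responses elicited by 15 μM glutamate. Stable HEK293 cells carried a fused GluA1o-γ8 construct and were preincubated with compound and calcium dye in pH 7.4 HEPES buffer.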

[2] = tested on: endogenous γ8-containing AMPA receptor currents; assay: Whole-cell electrophysiology on acutely-dissociated mouse hippocampal neurons; format: cell-based; settings: 10 mM glutamate, 500 ms, held at -60 mV
Method: The effects of selected compounds upon endogenous γ 8-containing AMPA receptor currents was evaluated using whole-cell electrophysiology on acutely-dissociated mouse hippocampal neurons. Hippocampus was chosen for this assay, since CACNG8 (the protein encoded by this gene is a type I transmembrane AMPA receptor regulatory protein i.e., TARP) is preferentially enriched in this brain region (Tomita et al. (2003). “Functional studies and distribution define a family of transmembrane AMPA receptor regulatory proteins.” J Cell Biol 161(4): 805-816.2003).
Hippocampi were dissected from C57black6 mice at 4-12 weeks postnatal, following the protocol described by Brewer (Brewer, G. J. (1997). “Isolation and culture of adult rat hippocampal neurons.” Journal of Neuroscience Methods 71(2): 143-155). The following is a brief summary of the procedure. Mice were asphyxiated with CO2 then decapitated. The brain was rapidly removed, then placed into ice-cold HABG medium. The recipe for HABG medium was: HibernateA supplemented with 2% B27 and 0.5 mM Glutamax (all reagents from Life Technologies). Hippocampi were micro-dissected from the brains, then washed with HABG without calcium (Hibernate A minus Calcium, BrainBits; 2% B27, Life Technologies; 0.5 mM glutamax, Life Technologies).
The hippocampi were then transferred to HABG without calcium, supplemented with 2 mg/mL papain (Worthington Biochemical). They were incubated at 30° C. on a roller for 40 min, then gently triturated with a fire-polished glass pipette. The supernatant containing dissociated neurons was collected, then centrifuged for 2 min at 200 g. The cell pellet was collected, and then resuspended in 8 mL of HABG. Live cells were counted, then plated onto 12 mm glass coverslips in HABG (2 mL) in 24-well plates at a density of 50-100 cells per coverslip. These cells were maintained at room temperature until use.
Whole-cell electrophysiology was performed using 1.5 mm diameter glass capillary tubes (World Precision Instruments TW150-4), pulled to a fine tip with a Sutter P-97 micropipette puller. The intracellular buffer was 90 mM KF, 30 mM KCl, 10 mM HEPES, and 5 mM EGTA, pH 7.4, 290mOs. The extracellular buffer was 135 mM NaCl, 4 mM KCl, 2 mM CaCl2, 1 mM MgCl2, 5 mM glucose, 10 mM HEPES, pH 7.4, 300 mOs. The open-tip resistances of the micropipettes using these solutions were 2-4 MΩ. Whole-cell recordings of neuron cell bodies were performed in voltage-clamp mode using an Axon Axopatch 200B amplifier. Whole-cell current was measured holding the interior of the cell at −60 mV, using a 5 kHz lowpass filter. The cells were continuously perfused through 7 mm square glass barrels using a solenoid-controlled solution switching device (Warner Instruments, PF-77B). The peak current in response to a 500 ms exposure to 10 mM glutamate every 5 seconds was measured, before and after exposure to test compound.
For analysis, the mean peak current of 5 traces in the presence of test compound was divided by the mean peak current of 5 traces prior to the addition of test compound. Compounds were tested at concentrations at least ten times higher than their estimated potency in the calcium flux assay, in order to ensure near-saturating occupancy of the receptor.

Chain of GluA1o-γ8 (GRIA1o-CACNG8 fusion construct; TARP γ8 dependent AMPA receptor) (P42261 other isoform, or with tags, fused parts or gaps): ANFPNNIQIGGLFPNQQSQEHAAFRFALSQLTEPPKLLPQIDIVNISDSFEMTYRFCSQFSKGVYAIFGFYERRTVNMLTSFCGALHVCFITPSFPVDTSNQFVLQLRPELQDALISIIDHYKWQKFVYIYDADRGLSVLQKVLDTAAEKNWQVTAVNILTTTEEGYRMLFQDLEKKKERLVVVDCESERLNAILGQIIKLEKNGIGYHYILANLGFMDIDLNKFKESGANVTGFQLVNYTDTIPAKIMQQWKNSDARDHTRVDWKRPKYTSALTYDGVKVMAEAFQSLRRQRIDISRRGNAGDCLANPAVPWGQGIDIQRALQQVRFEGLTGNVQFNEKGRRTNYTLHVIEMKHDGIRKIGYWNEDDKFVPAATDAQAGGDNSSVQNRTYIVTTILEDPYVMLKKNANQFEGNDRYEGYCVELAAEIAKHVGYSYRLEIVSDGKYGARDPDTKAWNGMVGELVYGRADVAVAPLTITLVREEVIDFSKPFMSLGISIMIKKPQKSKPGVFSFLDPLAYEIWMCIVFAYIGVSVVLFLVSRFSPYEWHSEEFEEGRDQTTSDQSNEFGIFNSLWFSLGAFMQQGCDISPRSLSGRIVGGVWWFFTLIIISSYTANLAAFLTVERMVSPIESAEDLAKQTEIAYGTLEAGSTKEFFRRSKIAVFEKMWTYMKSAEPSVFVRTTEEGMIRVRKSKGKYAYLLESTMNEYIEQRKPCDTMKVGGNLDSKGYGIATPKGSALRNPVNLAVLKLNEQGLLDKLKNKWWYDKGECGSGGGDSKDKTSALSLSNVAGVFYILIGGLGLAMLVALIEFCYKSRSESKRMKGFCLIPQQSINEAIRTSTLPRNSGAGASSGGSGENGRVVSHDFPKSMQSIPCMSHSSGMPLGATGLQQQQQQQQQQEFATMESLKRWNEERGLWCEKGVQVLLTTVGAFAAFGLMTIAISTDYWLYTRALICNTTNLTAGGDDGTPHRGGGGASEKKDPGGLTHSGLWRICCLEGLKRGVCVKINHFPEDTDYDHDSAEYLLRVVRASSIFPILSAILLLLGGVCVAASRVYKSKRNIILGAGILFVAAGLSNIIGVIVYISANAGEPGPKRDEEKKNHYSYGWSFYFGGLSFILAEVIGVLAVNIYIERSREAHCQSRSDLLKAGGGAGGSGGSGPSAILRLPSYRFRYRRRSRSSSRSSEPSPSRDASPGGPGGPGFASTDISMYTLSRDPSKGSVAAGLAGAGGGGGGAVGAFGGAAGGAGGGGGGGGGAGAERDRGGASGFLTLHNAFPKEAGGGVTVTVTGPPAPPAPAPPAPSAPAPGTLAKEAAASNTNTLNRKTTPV

Structure (SMILES): CC(=O)N1CCN(c2nccn3c(-c4ccc(O)cc4)c(-c4ccc(F)cc4)nc23)CC1 [Example 1, 1-[4-[2-(4-Fluorophenyl)-3-(4-hydroxyphenyl)imidazo[1,2-a]pyrazin-8-yl]piperazin-1-yl]ethanone]
- IC50 [1]: 6.31 nM
- peak current (% control) ([2]; 10 μM test compound): 81%

Structure (SMILES): Oc1ccc(-c2c(-c3ccc(F)cc3)nc3c(N4CC5(COC5)C4)nccn23)cc1 [Example 7, 4-[2-(4-Fluorophenyl)-8-(6-oxa-2-azaspiro[3.3]heptan-2-yl)imidazo[1,2-a]pyrazin-3-yl]phenol]
- IC50 [1]: 50.1 nM
- peak current (% control) ([2]; 10 μM test compound): 55%

Structure (SMILES): Fc1ccc(-c2nc3c(N4CCOCC4)nccn3c2-c2ccc3[nH]ncc3c2)cc1 [Example 10, 4-[2-(4-Fluorophenyl)-3-(1H-indazol-5-yl)imidazo[1,2-a]pyrazin-8-yl]morpholine]
- IC50 [1]: 0.631 nM
- peak current (% control) ([2]; 0.1 μM test compound): 64%
- peak current (% control) ([2]; 1 μM test compound): 74%

Structure (SMILES): CC(=O)N1CCN(c2nccn3c(-c4ccc5c(c4)CC(=O)N5)c(-c4ccc(F)cc4)nc23)CC1 [Example 12, 5-[8-(4-Acetylpiperazin-1-yl)-2-(4-fluorophenyl)imidazo[1,2-a]pyrazin-3-yl]indolin-2-one]
- IC50 [1]: 0.398 nM
- peak current (% control) ([2]; 0.1 μM test compound): 69%

Structure (SMILES): CC(=O)N1CCN(c2nccn3c(-c4ccc5c(c4)CC(=O)N5)c(Cc4ccccc4)nc23)CC1 [Example 17, 5-[8-(4-Acetylpiperazin-1-yl)-2-benzyl-imidazo[1,2-a]pyrazin-3-yl]indolin-2-one]
- IC50 [1]: 1.26 nM
- peak current (% control) ([2]; 0.1 μM test compound): 68%

Structure (SMILES): O=C1Cc2cc(-c3c(-c4ccc(F)cc4)nc4c(N5CCC(O)CC5)nccn34)ccc2N1 [Example 37, 5-[2-(4-Fluorophenyl)-8-(4-hydroxy-1-piperidyl)imidazo[1,2-a]pyrazin-3-yl]indolin-2-one]
- IC50 [1]: 0.316 nM
- peak current (% control) ([2]; 0.1 μM test compound): 66%

Structure (SMILES): Oc1ccc(-c2c(-c3ccc(F)cc3)nc3c(N4CCOCC4)nccn23)cc1 [Example 83, 4-[2-(4-Fluorophenyl)-8-morpholino-imidazo[1,2-a]pyrazin-3-yl]-phenol]
- IC50 [1]: 12.6 nM
- peak current (% control) ([2]; 10 μM test compound): 78%

Structure (SMILES): CC(=O)N1CCN(c2nccn3c(-c4ccc5c(c4)CC(=O)N5)c(-c4ccc(C#N)cc4)nc23)CC1 [Example 107, 4-[8-(4-Acetylpiperazin-1-yl)-3-(2-oxoindolin-5-yl)imidazo[1,2-a]pyrazin-2-yl]benzonitrile]
- IC50 [1]: 2.51 nM
- peak current (% control) ([2]; 0.1 μM test compound): 67%
